Data: article PMC11840605, “Crystallographic and Thermodynamic Evidence of Negative Coupling in the Flavin-Dependent Tryptophan Halogenases AbeH and BorH” (ACS Omega, 2025)
“Also recorded” adds a separate entry of the source.

Legend:
AbeH/Trp = AbeH/Trp (uncultured bacterium, UniProt F6LWA5); assay: Isothermal titration calorimetry, FAD into AbeH preincubated with Trp; format: binding, uncultured soil actinomycetes; set-up: n (ITC, Table S3) / DH (ΔH, ITC, Table S3) / -TDS (-TΔS, ITC, Table S3) / DG (ΔG, ITC, Table S3): unit of the concentration uncertain
Experimental: ITC experiments were performed using a VP-ITC isothermal titration calorimeter (MicroCal) in 20 mM HEPES pH 7.5, 350 mM NaCl, 1 mM ethylenediamine tetraacetic acid (EDTA) and 15% (v/v) glycerol. Solutions of AbeH, BorH, FAD (Chem-Implex), and Trp (Acros Organics) were prepared in the same buffer and degassed under vacuum at 30 °C for 20 min before loading in the syringe or cell. To analyze formation of binary complexes, AbeH or BorH was placed inside the cell, and ligand (FAD or Trp) was injected. For ternary complex titration, one ligand was preincubated with the macromolecule for 30 min at 30 °C to form binary complexes of AbeH/FAD, AbeH/Trp, BorH/FAD, and BorH/Trp before titrating with the second ligand. To test FADH2 binding to AbeH and BorH, FAD was reduced to FADH2 using sodium dithionite and stored under N2. Formation of FADH2 by sodium dithionite was verified using absorbance and fluorescence spectrophotometry.
ITC experiments were performed with reference power set to 10 μcal/s and Milli-Q water in the reference cell. All experiments were done with a pretitration delay of 20 min, a 5 min interval between injections, and a filter period of 2 s in high feedback gain mode. All experiments were performed at 310 rpm to mix the components in cell and titrant. All other VP-ITC instrumental parameters were set to default settings. Heats of dilution for all titrants were measured by titrating ligand into buffer for binary complex titrations, and by titrating ligand into a solution containing the other ligand but no protein for ternary complex titration.
190 μM FAD (2 μL/1 and 15 μL/29 injections) into 28 μM AbeH preincubated with 16 mM Trp (Figure 4C)
190 μM FAD (2 μL/1 and 15 μL/29 injections) into 28 μM AbeH preincubated with 28 mM Trp (Figure S8)
Titrations were analyzed by manually integrating each injection, subtracting the heat of dilution, and carrying out nonlinear least-squares fit of the calorimetric binding data to a one-site model using Origin 7.0 (Origin Lab). Trp binding experiments were subtracted by point-by-point heat of dilution, and FAD and FADH2 binding experiments were subtracted using the mean heat of the last three injections. For the Trp binding data, n was fixed to 1 based on expected stoichiometry of 1:1 based on FDH crystal structures and as proposed for lower c-value titrations in the literature.[23],[25],[82] The other parameters were not constrained during fitting.

AbeH = AbeH (uncultured bacterium, UniProt F6LWA5); assay: In vitro halogenation of Trp by AbeH, 1 h reaction, RP-HPLC/MS; format: biochemical, uncultured soil actinomycetes
Experimental: In vitro halogenation reactions contained 7 μM AbeH, 13 μM holo-AbeF (∼20% saturated with FAD), 2.5 mM NADH, 0.5 mM Trp, 50 mM NaCl or NaBr in 10 mM Tris-HCl pH 8.2 in a final volume of 100 μL. Reactions were initiated by addition of NADH and incubated with 200 rpm shaking at 37 °C for 1 h. Reactions were stopped by heating to 95 °C for 10 min followed by centrifugation at 10,000g for 5 min. Reaction mixtures were analyzed by RP-HPLC using a Kromasil C18 RP-analytical column (100 Å pore size, 4.6 × 250 mm) mounted on a Waters 2695 HPLC. Separation used a 14 min gradient from 5% B to 100% B (Solvent A = H2O/CH3CN 95:5, 0.1% TFA; Solvent B = H2O/CH3CN 5/95, 0.1% TFA) with flow rate 0.6 mL/min. Trp, 5-Cl-Trp, and 5-Br-Trp peaks were monitored with absorbance at 280 nm and retention times and yields were analyzed with using retention times and peak areas from standard curves of authentic standards of Trp (ACROS Organics), 5-Cl-Trp (Santa Cruz Biotechnology) and 5-Br-Trp (Santa Cruz Biotechnology). RP-HPLC purified 5-Cl-Trp and 5-Br-Trp peaks from in vitro halogenation reactions were analyzed on a Waters SYNAPT HDMS mass spectrometer using positive ion-mode ESI-MS with leucine enkephalin as internal standard.
Figure S2: AbeH chlorinates and brominates Trp in vitro.
In vitro halogenation reactions were performed with […], […], 2.5 mM NADH, 50 mM NaCl or NaBr in 10 mM Tris-HCl pH 8.2 at 37 °C shaking at 200 rpm with final volume of […]. Standards and reactions were analyzed on a Kromasil C18 column (100 Å pore size, 4.6 x 250 mm) mounted on a Waters HPLC using a 14 min gradient from 5% -100% B (Solvent A:5% CH3CN+0.1% TFA; Solvent B:95% CH3CN+0.1% TFA) with flow rate 0.6 mL/min using 90 µL injections. Baseline subtracted peak integration was performed on Empower software (Waters). (A) Trp standard (tR = 10.3 min). (B) 5-Cl-Trp standard (tR =11.3 min). (C) 5-Br-Trp standard (tR = 11.4 min). (D) 60 min AbeH in vitro chlorination reaction of 0.5 mM Trp (tR = 11.3 min, 100% conversion to 5-Cl-Trp). […]

[1] = cell AbeH/Trp (16 (unit uncertain))
[2] = cell AbeH/Trp (28 (unit uncertain))

Chain of AbeH/Trp (F6LWA5 entry or part of it): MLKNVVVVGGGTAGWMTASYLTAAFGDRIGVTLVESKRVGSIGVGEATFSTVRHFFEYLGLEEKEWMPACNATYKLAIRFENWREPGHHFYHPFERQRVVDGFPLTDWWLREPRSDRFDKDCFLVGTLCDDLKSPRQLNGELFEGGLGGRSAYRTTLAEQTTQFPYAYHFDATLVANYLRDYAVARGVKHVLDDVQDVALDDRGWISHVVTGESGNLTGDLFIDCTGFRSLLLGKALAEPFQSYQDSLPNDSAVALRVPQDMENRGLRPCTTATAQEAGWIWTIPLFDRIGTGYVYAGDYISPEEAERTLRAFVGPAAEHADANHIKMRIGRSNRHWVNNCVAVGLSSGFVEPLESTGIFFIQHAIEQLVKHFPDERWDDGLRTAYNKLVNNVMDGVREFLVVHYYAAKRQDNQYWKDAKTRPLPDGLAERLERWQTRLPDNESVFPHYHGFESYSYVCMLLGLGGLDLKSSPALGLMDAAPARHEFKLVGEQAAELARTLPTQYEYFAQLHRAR
Chain of AbeH (F6LWA5 entry or part of it): as above

Compound | Kd (AbeH/Trp; Apparent KD, FAD binding to AbeH/Trp, ITC, AbeH preincubated with Trp, depends on the Trp:AbeH molar ratio) | Heat of binding, titration of FAD into AbeH/Trp, in words (AbeH/Trp; ITC) | Kd (AbeH/Trp; KD, FAD into AbeH/Trp, ITC, experiment of Figure 4C, 28 μM AbeH preincubated with 16 mM Trp) | -TDS (-TΔS, ITC, Table S3) (AbeH/Trp; [1]) | DG (ΔG, ITC, Table S3) (AbeH/Trp; [1]) | DH (ΔH, ITC, Table S3) (AbeH/Trp; [1]) | n (ITC, Table S3) (AbeH/Trp; [1]) | -TDS (-TΔS, ITC, Table S3) (AbeH/Trp; [2]) | DG (ΔG, ITC, Table S3) (AbeH/Trp; [2]) | DH (ΔH, ITC, Table S3) (AbeH/Trp; [2]) | n (ITC, Table S3) (AbeH/Trp; [2]) | Conversion to 5-Br-Trp (AbeH; 60 min AbeH bromination reaction of 0.5 mM Trp, 50 mM NaBr) | Conversion to 5-Cl-Trp (AbeH; 60 min AbeH chlorination reaction of 0.5 mM Trp, 50 mM NaCl) | Product formation by AbeH when NaCl was replaced with NaI (AbeH; NaI)
Cc1cc2nc3c(=O)[nH]c(=O)nc-3n(C[C@H](O)[C@H](O)[C@H](O)COP(=O)(O)OP(=O)(O)OC[C@H]3O[C@@H](n4cnc5c(N)ncnc54)[C@H](O)[C@@H]3O)c2cc1C [FAD] | 6.3 ± 2.4 µM | endothermic; also recorded: heat being absorbed rather than released | 2.1 µM | -15.1 kcal/mol | -7.8 kcal/mol | 7.3 ± 0.4 kcal/mol | 0.58 ± 0.02 | -13.1 kcal/mol | -7.2 kcal/mol | 5.9 ± 1.6 kcal/mol | 0.6 ± 0.1 |  |  | 
N[C@@H](Cc1c[nH]c2ccccc12)C(=O)O [Tryptophan, L-tryptophan] |  |  |  |  |  |  |  |  |  |  |  | ~ 80% | 100% | No product peak was observed
